The values that follow are results of earlier work, collected in patent US20080014261A1, “Non-narcotic biphasic release compositions and methods for treatment of coughing, sneezing, rhinorrhea, and/or nasal obstruction” (priority 2006, published 2008).

For the data set the following is noted: in vivo.

For `COc1ccccc1OCC(O)CO` (stereo not shown) [Guaifenesin, 3-(2-methoxyphenoxy)-1,2 propanediol], the plasma half life result is listed as “one”.
